From patent US11007136B2, “Cosmetic composition for wrinkle reduction containing gypenoside isolated from Gynostemma pentaphyllum” (CELLTRION INC., priority 2015, dated 2021)

Test system: human dermal fibroblast neonatal
Test: Cytotoxicity test (MTT)
Assay type: cell-based
Conditions: for HDFn Viability: 48 h, % control; for cytotoxicity: at concentrations promoting procollagen synthesis
Method: A human dermal fibroblast neonatal (Cascade Co.) was inoculated into a 24-well microplate (5×10^4 cells/well) by using a medium, in which Dulbeco's Modified Eagle's Medium (DMEM) was supplemented with 10% fetal bovine serum, thus being cultured under a condition of 37° C. and 5% CO2 for 24 hours. Then, the same was replaced with a serum-free DMEM medium and cultured for 24 hours, thus treating the Gynostemma pentaphyllum gypenoside fraction obtained from the Example 1 and the gypenosides UL4 and UL5 isolated therefrom, respectively. After being cultured for 48 hours, an MTT solution was added thereto, thus being cultured for four hours. The medium was removed therefrom and DMSO was added thereto, thus dissolving an MTT formazan. The MTT formazan dissolved in the DMSO was taken out and an optical density thereof was measured at 570 nm, thus being compared to a group without sample treatment and indicated as % control.

| SMILES | HDFn Viability (5 ug/ml) | HDFn Viability (10 ug/ml) | HDFn Viability (50 ug/ml) | cytotoxicity |
| --- | --- | --- | --- | --- |
| CC(C)=CC1C[C@](O)([C@H]2CC[C@]3(C)[C@@H]2CC[C@@H]2[C@@]4(C=O)CC[C@H](O[C@@H]5OC[C@H](O)[C@H](O[C@@H]6OC[C@@H](O)[C@H](O)[C@H]6O)[C@H]5O[C@@H]5O[C@@H](C)[C@H](O)[C@@H](O)[C@H]5O)C(C)(C)[C@@H]4CC[C@]23C)[C@H](O)O1 (stereo partly drawn) [Gypenoside UL4, (23ξ)-3β,20β,21α-trihydroxy-19-oxo-21,23-epoxy-dammar-24-ene-3-O-[α-L-rhamnopyranosyl (1→2)][β-D-xylopyranosyl (1→3)]-α-L-arabinopyranoside] | 98% | 100% | 106% | did not show any cytotoxicity |
| CC(C)=CC1C[C@](O)([C@H]2CC[C@]3(C)[C@@H]2CC[C@@H]2[C@@]4(C=O)CC[C@H](O[C@@H]5OC[C@H](O)[C@H](O[C@@H]6O[C@H](CO)[C@@H](O)[C@H](O)[C@H]6O)[C@H]5O[C@@H]5O[C@@H](C)[C@H](O)[C@@H](O)[C@H]5O)C(C)(C)[C@@H]4CC[C@]23C)[C@H](O)O1 (stereo partly drawn) [Gypenoside UL5, (23ξ)-3β,20β,21α-trihydroxy-19-oxo-21,23-epoxy-dammar-24-ene-3-O-[α-L-rhamnopyranosyl (1→2)][β-D-glucopyranosyl (1→3)]-α-L-arabinopyranoside] | 100% | 102% | 113% | did not show any cytotoxicity |
